Key:
[1] = tested on: HIV strain IIIB (wild type); test: microbe, parasite or virus in culture; details: Human immunodeficiency virus 1, IIIB, 72 h, read-out: IIIB pEC50 (−log EC50) (converted)
Experimental: Compounds of the invention were tested for their potency against wild type virus and clinically isolated HIV strains harboring one or more mutations associated with resistance to reverse transcriptase inhibitors. Antiviral activity was evaluated using a cellular assay performed according to the following procedure.
The human T-cell line MT4 was engineered with Green Fluorescent Protein (GFP) and a HIV-specific promoter, HIV-1 long terminal repeat (LTR). This cell line, designated MT4 LTR-EGFP, can be used for the in vitro evaluation of anti-HIV activity of investigational compounds. In HIV-1 infected cells, the Tat protein is produced, which upregulates the LTR promotor and eventually leads to stimulation of the GFP reporter production, allowing to measure ongoing HIV-infection fluorometrically.
Analogously, MT4 cells were engineered with GFP and the constitutional cytomegalovirus (CMV) promotor. […] Cytotoxic investigational compounds reduce GFP levels of mock-infected MT4 CMV-EGFP cells.
The ratio of CC50 to EC50 is defined as the selectivity index (SI) and is an indication of the selectivity of the anti-HIV activity of the inhibitor. The ultimate monitoring of HIV-1 infection and cytotoxicity was done using a scanning microscope. Image analysis allows very sensitive detection of viral infection. Measurements were done before cell necrosis, which usually takes place about five days after infection, in particular measurements were performed three days after infection.
The columns IIIB, L100I, etc. in the table list the pEC50 (−log EC50) values against various strains IIIB, L100I, etc.; pSI lists the −log SI values.
Strain IIIB is wild type HIV strain.

HIV strain L100I + K103N = test: microbe, parasite or virus in culture; type: cell-based, HIV-1; details: Human immunodeficiency virus 1, 72 h, read-out: L100I + K103N pEC50 (−log EC50) (converted)
From the text: (§1) Image analysis allows very sensitive detection of viral infection.

HIV strain K103N + Y181C = test: microbe, parasite or virus in culture; type: cell-based, HIV-1; details: Human immunodeficiency virus 1, 72 h, read-out: K103N + Y181C pEC50 (−log EC50) (converted)
From the text: as §1

HIV strain Y181C = test: microbe, parasite or virus in culture; type: cell-based, HIV-1; details: Human immunodeficiency virus 1, 72 h, read-out: Y181C pEC50 (−log EC50) (converted)
From the text: as §1

[2] = tested on: HIV strain MDR (L100I, K103N, Y181C, E138G, V179I, L2214F, V278V/I and A327A/V in HIV reverse transcriptase); test: microbe, parasite or virus in culture; type: cell-based, HIV-1; details: Human immunodeficiency virus 1, 72 h, read-out: MDR pEC50 (−log EC50) (converted)
From the text: as §1
“MDR” refers to a strain that contains mutations L100I, K103N, Y181C, E138G, V179I, L2214F, V278V/I and A327A/V in HIV reverse transcriptase.

Q: What does the source list for `Cc1cc(/C=C/C#N)cc(C)c1Nc1cc(C(=O)NCc2ccco2)nc(Nc2ccc(C#N)cc2)n1` [Compound 8]?
A: EC50 [1]: 5.5 nM; EC50 (HIV strain L100I + K103N): 85.1 nM; EC50 (HIV strain K103N + Y181C): 31.6 nM; EC50 (HIV strain Y181C): 18.6 nM; melting point: 256 °C; EC50 [2]: 8130 nM

Q: With `Cc1cc(/C=C/C#N)cc(C)c1Nc1cc(-c2cccnc2)nc(Nc2ccc(C#N)cc2)n1` [Compound 1] as the molecule, how does the EC50 [1] read?
A: 3.47 nM

Q: And the EC50 (HIV strain L100I + K103N)?
A: 115 nM

Q: What about the EC50 (HIV strain K103N + Y181C) of the same molecule?
A: 19.5 nM

Q: And the EC50 (HIV strain Y181C)?
A: 11 nM

Q: And the melting point?
A: 180 °C

Q: What about the EC50 [2] of the same molecule?
A: 1780 nM

Q: With `Cc1cc(/C=C/C#N)cc(C)c1Nc1cc(C(=O)NCCF)nc(Nc2ccc(C#N)cc2)n1` [Compound 5] as the molecule, how does the EC50 [1] read?
A: 1.58 nM

Q: And the EC50 (HIV strain L100I + K103N)?
A: 25.1 nM

Q: And the EC50 (HIV strain K103N + Y181C)?
A: 4.37 nM

Q: And the EC50 (HIV strain Y181C)?
A: 6.31 nM

Q: And the melting point?
A: > 250 °C

Q: And the EC50 [2]?
A: 1410 nM

Q: What does the source list for `COCCNC(=O)c1cc(Nc2c(C)cc(/C=C/C#N)cc2C)nc(Nc2ccc(C#N)cc2)n1` [Compound 4]?
A: EC50 [1]: 3.09 nM; EC50 (HIV strain K103N + Y181C): 10.2 nM; EC50 (HIV strain Y181C): 13.8 nM; melting point: 130 °C; EC50 [2]: 2820 nM

Q: For `Cc1cc(/C=C/C#N)cc(C)c1Nc1cc(C(=O)NCCC#N)nc(Nc2ccc(C#N)cc2)n1` [Compound 6], which EC50 [1] is on record?
A: 8.91 nM

Q: And the EC50 (HIV strain L100I + K103N)?
A: 40.7 nM

Q: And the EC50 (HIV strain Y181C)?
A: 20 nM

Q: What about the melting point of the same molecule?
A: 250 °C

Q: What about the EC50 [2] of the same molecule?
A: 1860 nM

Q: With `Cc1cc(/C=C/C#N)cc(C)c1Nc1cc(C(O)c2nccs2)nc(Nc2ccc(C#N)cc2)n1` (stereo not shown) [Compound 11] as the molecule, how does the EC50 [1] read?
A: 1.82 nM

Q: And the EC50 (HIV strain L100I + K103N)?
A: 6.31 nM

Q: And the EC50 (HIV strain K103N + Y181C)?
A: 19.1 nM

Q: What about the EC50 (HIV strain Y181C) of the same molecule?
A: 4.07 nM

Q: What about the melting point of the same molecule?
A: 147 °C

Q: And the EC50 [2]?
A: 692 nM

Q: Which EC50 [1] does the source give for `Cc1cc(/C=C/C#N)cc(C)c1Nc1cc(/C=N/O)nc(Nc2ccc(C#N)cc2)n1` [Compound 34] here?
A: 3.98 nM

Q: What about the EC50 (HIV strain L100I + K103N) of the same molecule?
A: 12.6 nM

Q: And the EC50 (HIV strain K103N + Y181C)?
A: 3.98 nM

Q: And the EC50 (HIV strain Y181C)?
A: 10 nM

Q: And the melting point?
A: 220 °C

Q: What about the EC50 [2] of the same molecule?
A: 501 nM

— patent publication US9006243B2, “HIV inhibiting 6-substituted pyrimidines” (Janssen R&D Ireland, priority 2006, dated 2015)
